Laboratory results taken from PMC10515640, “Structure-Based Optimization of Covalent, Small-Molecule Stabilizers of the 14-3-3σ/ERα Protein–Protein Interaction from Nonselective Fragments” (Journal of the American Chemical Society, 2023).

Columns and labels:
14-3-3σ/ERα [1] = target: T1, 14-3-3σ/ERα (Homo sapiens, UniProt P03372+P31947); experiment: Fluorescence anisotropy compound titration, FAM-labeled ERα peptide; type: binding; conditions: 10 nM ERα-FAM labeled peptide, 1 µM 14-3-3σ, overnight incubation (24 h); read-out: EC50 value ERα (FA compound titration)
T1 construct: The 14-3-3 σ isoform (full-length for mass spectrometry and fluorescence anisotropy assays, ΔC for crystallography); made in house; host or cells: E. coli Rosetta 2(DE3)pLysS, pPROEX HTb vector
Excerpt: (§1) Two orthogonal assays were developed for screening. For the primary assay, mass spectrometry (MS) was used to monitor the formation of the covalent bond between the compound and the native cysteine (Cys38 on 14-3-3σ) (Figure 1D). The assay was first performed in the absence of peptide to determine binding to 14-3-3σ only (apo screening, D1) and then in the presence of both 14-3-3σ and the peptide as an indication of how much the peptide stabilized compound binding (D2). […] As a secondary assay, fluorescence anisotropy (FA) was used. In this case, compounds were titrated to mixtures of 14-3-3σ and FAM-labeled peptides. […] Thus, the two assays are highly complementary; the MS assay reports on compound binding and the FA assay reports on peptide binding. […]
diluted in buffer (10 mM HEPES, pH 7.5, 150 mM NaCl, 0.1% Tween20, 1 mg/mL Bovine Serum Albumin (BSA; Sigma-Aldrich). Final DMSO in the assay was always 1%. Dilution series of 14-3-3 proteins or compounds were made in […]
Compound titrations were made by titrating the compound in a 2-fold dilution series (starting at 500 or 1000 µM) to a mix of fluorescein-labeled peptide (10 nM) and 14-3-3σ (concentration at approximately the EC20 to EC30 value of the protein-peptide complex; 1 µM for ERα and 5 µM for C-RAF). Using the ~EC25 value makes the assay sensitive for measuring an increase in PPI formation. Fluorescence anisotropy measurements were performed directly and after overnight incubation at room temperature. […]
Wells containing only FAM-peptide were used to set as G-factor at 35 mP. Data reported are at endpoint. EC50 and apparent Kd values were obtained from fitting the data with a four-parameter logistic model (4PL) in GraphPad Prism 7 for Windows. Data was obtained and averaged based on either three (compound titrations) or two (protein titrations) independent experiments.

14-3-3σ = target: T2, 14-3-3σ (Homo sapiens, UniProt P31947); experiment: Mass spectrometry dose response, compound binding to 14-3-3σ in the absence of peptide (apo); conditions: 100 nM compound, 100 nM 14-3-3σ
T2 construct: The 14-3-3 σ isoform (full-length for mass spectrometry and fluorescence anisotropy assays, ΔC for crystallography); made in house; host or cells: E. coli Rosetta 2(DE3)pLysS, pPROEX HTb vector
T2 sequence (P31947 1-248): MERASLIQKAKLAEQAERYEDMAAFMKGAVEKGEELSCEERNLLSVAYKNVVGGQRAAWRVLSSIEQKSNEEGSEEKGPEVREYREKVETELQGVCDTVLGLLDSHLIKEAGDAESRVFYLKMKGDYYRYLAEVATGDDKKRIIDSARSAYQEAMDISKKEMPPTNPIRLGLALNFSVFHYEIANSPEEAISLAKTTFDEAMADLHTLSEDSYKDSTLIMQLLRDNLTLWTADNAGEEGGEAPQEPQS
Excerpt: as §1
(§2) Mass spectrometry dose response assays were performed on a Waters Acquity UPLC/ Xevo G2-XS Q-Tof mass spectrometer. A Waters UPLC Protein BEH-C4 Column (300 Å, 1.7 μm, 2.1 mm x 50 mm) was used to desalt the samples prior to application on the mass spectrometer. For 19-point MS dose responses, 50 mM compound stocks in DMSO were serially diluted in 3-fold increment in a master plate, then 1000 nl of the compounds were transferred in the assay plates. Master mixes containing 100 nM full-length wild type 14-3-3σ in the absence or presence of […]
(§3) Assay buffer was TRIS (10 mM, pH 8.0) and final volume per well was 50 μl, with final top concentration of compounds dose response series at 1 mM. The reaction mixtures were incubated for 1h at rt before subjected to MS. Four measurements (1h, 8h, 16h, 24h) were performed for time-course experiments. The injection volume for each sample was 6 μl. 24 μl of sample were needed for the time-course experiments, so the total volume in the assay plate was adjusted to 50 μl, to account for the dead volume in the injections. Data collection and automated processing followed a custom workflow, as previously described.1 z Plots were created using GraphPad Prism with the log(agonist) vs. response (variable slope, four parameters) fitting model. […]

14-3-3σ/ERα [2] = target: T1, 14-3-3σ/ERα; experiment: Mass spectrometry dose response, compound binding to 14-3-3σ in the presence of ERα phosphopeptide; conditions: 100 nM compound, 100 nM 14-3-3σ, ERα-peptide 2 µM
Excerpt: as §1, §2, §3

14-3-3σ/C-RAF = target: T3, 14-3-3σ/C-RAF (Homo sapiens, UniProt P31947); experiment: Mass spectrometry dose response, compound binding to 14-3-3σ in the presence of C-RAF phosphopeptide; conditions: 100 nM compound, 100 nM 14-3-3σ, C-RAF peptide 18 µM
T3 construct: The 14-3-3 σ isoform (full-length for mass spectrometry and fluorescence anisotropy assays, ΔC for crystallography); made in house; host or cells: E. coli Rosetta 2(DE3)pLysS, pPROEX HTb vector
T3 sequence (P31947 1-248): T2 sequence (P31947 1-248)
Excerpt: as §1, §2, §3

Structure (SMILES) | EC50 (14-3-3σ/ERα [1]) | Percentage (%) bound of compound to 14-3-3σ, APO 1h (14-3-3σ) | Percentage (%) bound of compound to 14-3-3σ, APO 8h (14-3-3σ) | Percentage (%) bound of compound to 14-3-3σ, APO 16h (14-3-3σ) | Percentage (%) bound of compound to 14-3-3σ, APO 24h (14-3-3σ) | Percentage (%) bound of compound to 14-3-3σ, ERα 1h (14-3-3σ/ERα [2]) | Percentage (%) bound of compound to 14-3-3σ, ERα 8h (14-3-3σ/ERα [2]) | Percentage (%) bound of compound to 14-3-3σ, ERα 16h (14-3-3σ/ERα [2]) | Percentage (%) bound of compound to 14-3-3σ, ERα 24h (14-3-3σ/ERα [2]) | Percentage (%) bound of compound to 14-3-3σ, CRAF 1h (14-3-3σ/C-RAF) | Percentage (%) bound of compound to 14-3-3σ, CRAF 8h (14-3-3σ/C-RAF) | Percentage (%) bound of compound to 14-3-3σ, CRAF 24h (14-3-3σ/C-RAF; 24h) | Percentage (%) bound of compound to 14-3-3σ, CRAF 24h (14-3-3σ/C-RAF; head prints 24h)
Cl.O=C(CCl)NCC1CCN(C(=O)C2(Nc3ccccc3)CCNCC2)CC1 [compound 133] | 115 µM | 0.7% | 1.1% | 1.2% | 10.3% | 4.5% | 12.9% | 26.7% | 47.0% | 0% | 1.0% | 1.1% | 1.1%
Cl.NC1CCC(Oc2ccccc2)(C(=O)N2CCC(CNC(=O)CCl)CC2)CC1 (centres unmarked) [compound 139] | > 150 µM | 0% | 0% | 2.0% | 2.0% | 0% | 0% | 0% | 1.0% | 0% | 0% | 1.0% | 0%
CC(C)(Oc1ccc(Cl)cc1)C(=O)N1CCC(CCC(=O)CCl)CC1 [compound 37] | 44 ± 2 µM | 12.0% | 40.8% | 72.0% | 90.3% | 56.4% | 97.6% | 100% | 100% | 98.8% | 99.9% | 100% | 99.9%

The remaining lines, values ahead:

EC50 (14-3-3σ/ERα [1]) | Percentage (%) bound of compound to 14-3-3σ, APO 1h (14-3-3σ) | Percentage (%) bound of compound to 14-3-3σ, APO 8h (14-3-3σ) | Percentage (%) bound of compound to 14-3-3σ, APO 16h (14-3-3σ) | Percentage (%) bound of compound to 14-3-3σ, APO 24h (14-3-3σ) | Percentage (%) bound of compound to 14-3-3σ, ERα 1h (14-3-3σ/ERα [2]) | Percentage (%) bound of compound to 14-3-3σ, ERα 8h (14-3-3σ/ERα [2]) | Percentage (%) bound of compound to 14-3-3σ, ERα 16h (14-3-3σ/ERα [2]) | Percentage (%) bound of compound to 14-3-3σ, ERα 24h (14-3-3σ/ERα [2]) | Percentage (%) bound of compound to 14-3-3σ, CRAF 1h (14-3-3σ/C-RAF) | Percentage (%) bound of compound to 14-3-3σ, CRAF 8h (14-3-3σ/C-RAF) | Percentage (%) bound of compound to 14-3-3σ, CRAF 24h (14-3-3σ/C-RAF; 24h) | Percentage (%) bound of compound to 14-3-3σ, CRAF 24h (14-3-3σ/C-RAF; head prints 24h) | Structure (SMILES)
5 ± 0.3 µM | 18.0% | 35.7% | 70.7% | 95.1% | 81.1% | 97.0% | 100% | 100% | 54.7% | 62.3% | 99.4% | 92.0% | O=C(CCl)CCC1CCN(C(=O)C2(Nc3ccc(Cl)cc3)CCOCC2)CC1 [compound 156]
16 ± 2 µM | 0% | 0% | 1.8% | 2.2% | 6.5% | 20.6% | 48.0% | 75.0% | 0% | 1.0% | 3.7% | 1.5% | O=C(CCl)NCCC1CCN(C(=O)C2(Nc3ccc(Cl)cc3)CCNCC2)CC1 [compound 151]
